# Article PMC7054763, “Sulfonamide-Based Azaheterocyclic Schiff Base Derivatives as Potential Carbonic Anhydrase Inhibitors: Synthesis, Cytotoxicity, and Enzyme Inhibitory Kinetics” (BioMed Research International, 2020)
# “Also recorded” adds a separate entry of the source.
# Experiments:
# [1] = target: T1, carbonic anhydrase (Bos taurus, UniProt P00921); assay: Carbonic anhydrase (CA) assay; assay type: biochemical; details: bovine enzyme, p-nitrophenyl acetate substrate, pH 7.6, 25°C; for IC50: read-out: Carbonic anhydrase IC50 ± SEM
# T1 construct: purchased Sigma-Aldrich
# T1 sequence (P00921 whole entry): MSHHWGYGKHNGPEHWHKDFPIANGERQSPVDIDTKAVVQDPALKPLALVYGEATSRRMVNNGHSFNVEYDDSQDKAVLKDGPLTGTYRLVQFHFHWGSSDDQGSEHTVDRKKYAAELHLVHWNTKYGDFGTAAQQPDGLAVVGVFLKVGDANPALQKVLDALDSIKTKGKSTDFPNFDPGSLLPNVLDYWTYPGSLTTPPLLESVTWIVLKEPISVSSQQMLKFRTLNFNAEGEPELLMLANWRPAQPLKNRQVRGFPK
# [2] = target: T1, carbonic anhydrase; assay: Kinetic analysis (Lineweaver-Burk) of carbonic anhydrase inhibition; assay type: biochemical, bovine
# Procedure: CA inhibition has been determined using some reported methods with a few modifications. […] In brief, 120 microliters of 50 mM Tris-Sulfate buffer (with a pH 7.6 comprising 0.1 mM ZnCl2), twenty μL of (50 U) bovine enzyme, and 20 μL of inhibitor per well makes the reaction mixture. Mixture contents were mixed well before preincubation for ten minutes at 25°C. Para-nitrophenyl acetate substrate (6 mM stock solution by using <5% acetonitrile present in buffer and has been used fresh each time) and forty microliters were taken I each well to reach 0.6 mM concentration per well. The volume of the reaction mixture was diluted to 200 μL. Contents were well mixed after thirty-minute incubation at 25°C, and absorbance results were determined at 348 nm with a microplate reader (SpectraMax ABS, USA). Standard used was acetazolamide. Experiments were performed in triplicate with each concentration. GraphPad Prism 5.0 (GraphPad, San Diego, CA, USA) has been used to calculate IC50 by nonlinear regression. Inhibition (%) = [(B − S)/B] × 100, where S and B are the absorbances of the samples and blank.
# To determine the kinetic parameters of compound 3c, a sequence of experiments have been done. Compound 3c was selected on the basis of IC50 value which was used at different concentrations (0.0, 7.1, 14.2, and 28.4 μM, respectively); the substrate (p-nitrophenyl acetate) concentrations were varied (2, 1, 0.5, 0.25, 0.125, and 0.0625 mM). Other all experimental conditions were just similar as described in the carbonic anhydrase assay segment. The maximum initial velocity has been measured using the starting linear part of absorbance values up to ten minutes at a 1-minute interval. Plots of Lineweaver–Burk on graph between inverse of velocities (1/V) and inverse of concentration of substrate 1/[S] mM^−1 were used in order to find enzyme inhibition type. EI dissociation constant Ki was found by the secondary plot of concentrations of inhibitors versus 1/V.
# [3] = tested on: human keratinocyte (HaCaT) cells; assay: Cell viability assay (MTT) using HaCaT; assay type: cell-based
# Procedure: (§1) The experiment for cell viability studies using MTT (3-(4,5-dimethylthiazol-2yl)-2,5-diphenyltetrazolium bromide) setup has been done to find cytotoxic effects of target compounds. The human keratinocyte (HaCaT) and MCF-7 were cultivated separately in 96-well plates (CGP, gamma sterilized, SPL Korea) with use of complete DMEM consisting of ten percent fetal bovine serum and one percent antibiotics. 5∗10^4 cells per well were incubated for 24 hours before their exposure to a series of dilutions of target derivatives. The analogue 3c was solubilized in DMSO, and DMEM was used for dilution to achieve final concentrations 0, 125, and 250 μM. Then, in the presence of test compounds, cells were incubated again for twenty-four hours at 37 C with 5% carbon dioxide. Now, through the MTT setup, absorbance values at 570 nm were determined by ELISA reader and each experiment was repeated thrice. All data was shown in a mean ± standard deviation pattern, and Student's t-tests were performed to analyze significance of the data. Statistical significance has been assumed (p < 0.005).
# [4] = tested on: MCF-7 cells; assay: Cell viability assay (MTT) using MCF-7; assay type: cell-based, human; details: MCF-7, 24 h, 0, 125 and 250 μM
# Procedure: as §1
Compound,melting point [°C],Carbonic anhydrase IC50 ± SEM [1],IC50 [1] [µM],other results
"O=S(=O)(N/N=C/c1cccnc1)c1ccccc1 [Compound 3a, (E)-N′-(pyridin-3-ylmethylene)benzenesulfonohydrazide]",176 to 178,No inhibition,,
"Cc1cc(C)c(S(=O)(=O)N/N=C/c2cccnc2)c(C)c1 [Compound 3b, (E)-2,4,6-trimethyl-N′-(pyridin-3-ylmethylene)benzenesulfonohydrazide]",173 to 176,No inhibition,,
"Cc1ccc(S(=O)(=O)N/N=C/c2cccnc2)cc1 [Compound 3c, (E)-4-methyl-N′-(pyridin-3-ylmethylene)benzenesulfonohydrazide]",168 to 171,,0.84 ± 0.12,"Vmax ([2]; 3c 7.1 μM): 0.01006 ΔA/min; Vmax ([2]; 3c 14.2 μM): 0.004552 ΔA/min; Vmax ([2]; 3c 28.4 μM): 0.002293 ΔA/min; Inhibition type ([2]; Lineweaver-Burk plots): noncompetitive mode of inhibition; also recorded: noncompetitively; Ki ([2]; secondary plot of Lineweaver-Burk slope versus 3c concentration, read-out: Ki (EI dissociation constant)): 8.6 µM; Cytotoxic effects, HaCaT compared with MCF-7 ([3]; HaCaT versus MCF-7, 250 μM): smaller in case of human keratinocyte (HaCaT) at concentration 250 μM than MCF-7; also recorded: less cytotoxic effects on human keratinocyte cell lines (HaCaT) compared to breast cancer cell lines MCF-7; Cytotoxicity (cell viability) ([3]; HaCaT, 24 h, 0, 125 and 250 μM): caused cytotoxicity in a concentration-dependent manner; Cytotoxicity (cell viability) [4]: caused cytotoxicity in a concentration-dependent manner"
"CC(=O)Nc1ccc(S(=O)(=O)N/N=C/c2cccnc2)cc1 [Compound 3d, (E)-N-(4-((2-(pyridin-3-ylmethylene)hydrazinyl)sulfonyl)phenyl)acetamide]",181 to 184,No inhibition,,
"Cc1cc(C)c(S(=O)(=O)N/N=C/c2ccncc2)c(C)c1 [Compound 3e, (E)-2,4,6-trimethyl-N′-(pyridin-4-ylmethylene)benzenesulfonohydrazide]",160 to 164,,18.9 ± 0.85,
"Cc1ccc(S(=O)(=O)N/N=C/c2ccncc2)cc1 [Compound 3f, (E)-4-methyl-N′-(pyridin-4-ylmethylene)benzenesulfonohydrazide]",148 to 152,No inhibition,,
"Cc1ccc(S(=O)(=O)N/N=C/c2ccccn2)cc1 [Compound 3g, (E)-4-methyl-N′-(pyridin-2-ylmethylene)benzenesulfonohydrazide]",159 to 161,,59.1 ± 1.68,
"O=S(=O)(N/N=C/c1ccc[nH]1)c1ccccc1 [Compound 3h, (E)-N′-((1H-pyrrol-2-yl)methylene)benzenesulfonohydrazide]",156 to 158,,31.8 ± 1.07,
"Cc1ccc(S(=O)(=O)N/N=C/c2ccc[nH]2)cc1 [Compound 3i, (E)-N′-((1H-pyrrol-2-yl)methylene)-4-methylbenzenesulfonohydrazide]",146 to 148,No inhibition,,
"COc1ccc(S(=O)(=O)N/N=C/c2cc[nH]c2)cc1 [Compound 3j, (E)-N′-((1H-pyrrol-3-yl)methylene)-4-methoxybenzenesulfonohydrazide]",176 to 179,No inhibition,,
